# Like-named read-outs stand apart in the source and are kept apart here.
# Test system: stem cell derived hepatocytes
# Experiment: Hepatocyte function with Cameron and Avior procedures on laminin-221/laminin-521 substrates (Example 3)
# Format: cell-based, human
# Source text: Stem-cell derived hepatocytes were produced from human embryonic stem cells on three different substrates. The first substrate was pure laminin-521 (LN-521). The second substrate was a mix of laminin-521 and laminin-221 in a weight ratio of 1:3 (221 (1:3)). The third substrate was a mix of laminin-221 and laminin-521 in a weight ratio of 1:1 (221 (1:1)). The Cameron procedure and the Avior procedure were compared to each other.
# FIG. 13 is a set of two bar graphs showing hepatocyte function of the two procedures. […] Such benefits were not observed using both MK4 and LCA.
Compound,"toxic effects on stem cell derived hepatocytes (Avior procedure, LCA and MK4 together, cell death at day 18)",toxic effects on stem cell derived hepatocytes
"C[C@H](CCC(=O)O)[C@H]1CC[C@H]2[C@@H]3CC[C@@H]4C[C@H](O)CC[C@]4(C)[C@H]3CC[C@]12C [LCA, lithocholic acid]",major toxic effects,
"CC(C)=CCC/C(C)=C/CC/C(C)=C/CC/C(C)=C/CC1=C(C)C(=O)c2ccccc2C1=O [MK4, vitamin K (MK4)]",,major toxic effects

# Source: US10683486B2, “Methods for producing hepatocytes” (BioLamina AB, priority 2015, dated 2020)
